From PubChem BioAssay (NCI)
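These data come from cells grown in 96-well plates and exposed to compound for 48 hours at five concentrations. GI50: concentration for 50% inhibition of growth. TGI: total growth inhibition.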

Tests used:
Assay in all cases: inhibition of tumour cell growth, NCI panel, 48 h
[1] = system: RPMI-8226 leukemia
[2] = system: SW-620 colon
[3] = system: SF-295 CNS
[4] = system: SK-MEL-5 melanoma
[5] = system: SK-MEL-2 melanoma
[6] = system: 786-0 renal
[7] = system: HL-60(TB) leukemia
[8] = system: UO-31 renal
[9] = system: NCI/ADR-RES ovarian
[10] = system: OVCAR-3 ovarian
[11] = system: SK-OV-3 ovarian
[12] = system: SN12C renal
[13] = system: HS 578T breast
[14] = system: DU-145 prostate
[15] = system: NCI-H23 lung
[16] = system: SK-MEL-28 melanoma
[17] = system: SR leukemia
[18] = system: MDA-MB-435
[19] = system: ACHN renal
[20] = system: UACC-62 melanoma
[21] = system: NCI-H226 lung
[22] = system: MOLT-4 leukemia
[23] = system: SNB-75 CNS
[24] = system: LOX IMVI melanoma
[25] = system: A498 renal
[26] = system: TK-10 renal
[27] = system: M14 melanoma
[28] = system: RXF 393 renal
[29] = system: NCI-H522 lung
[30] = system: U251 CNS
[31] = system: HCT-15 colon
[32] = system: HCT-116 colon
[33] = system: PC-3 prostate
[34] = system: CAKI-1 renal
[35] = system: SF-539 CNS
[36] = system: MDA-MB-231 breast
[37] = system: KM12 colon
[38] = system: COLO 205 colon
[39] = system: EKVX NSCLC
[40] = system: SF-268 CNS
[41] = system: OVCAR-4 ovarian
[42] = system: CCRF-CEM leukemia
[43] = system: K-562 leukemia
[44] = system: IGROV1 ovarian
[45] = system: MALME-3M melanoma
[46] = system: MCF7 breast
[47] = system: OVCAR-5 ovarian
[48] = system: HOP-92 NSCLC
[49] = system: UACC-257 melanoma
[50] = system: HCC-2998 colon
[51] = system: T-47D breast
[52] = system: HOP-62 NSCLC
[53] = system: SNB-19 CNS
[54] = system: HT29 colon
[55] = system: OVCAR-8 ovarian
[56] = system: NCI-H460 lung
[57] = system: A549 NSCLC

COc1cc2c(/C=C3/C(=O)Nc4ccc(O)cc43)c(Cl)n(Cc3cc(OC)c(OC)c(OC)c3)c2cc1C
GI50 [1]: 2.12 µM | TGI [1]: > 100 µM | GI50 [2]: 3.28 µM | TGI [2]: > 100 µM | GI50 [3]: 0.795 µM | TGI [3]: 5.67 µM | GI50 [4]: 1.02 µM | TGI [4]: 2.71 µM | GI50 [5]: 1.93 µM | TGI [5]: 13.7 µM | GI50 [6]: 1.6 µM | TGI [6]: > 29.3 µM | GI50 [7]: 1.97 µM | TGI [7]: 10.3 µM | GI50 [8]: 3.25 µM | TGI [8]: > 74.4 µM | GI50 [9]: 3.41 µM | TGI [9]: > 100 µM | GI50 [10]: 1.32 µM | TGI [10]: > 20.8 µM | GI50 [11]: 4.06 µM | TGI [11]: > 75 µM | GI50 [12]: 4.14 µM | TGI [12]: > 44 µM | GI50 [13]: 2.37 µM | TGI [13]: > 30.5 µM | GI50 [14]: 3.42 µM | TGI [14]: > 30.3 µM | GI50 [15]: 3.54 µM | TGI [15]: > 100 µM | GI50 [16]: 0.878 µM | TGI [16]: 5.94 µM | GI50 [17]: 0.329 µM | GI50 [18]: 0.328 µM | GI50 [19]: 3.43 µM | TGI [19]: > 100 µM | GI50 [20]: 1.58 µM | TGI [20]: 8.56 µM | GI50 [21]: 2.88 µM | TGI [21]: > 27 µM | GI50 [22]: 2.34 µM | TGI [22]: > 21.9 µM | GI50 [23]: 1.61 µM | TGI [23]: > 59.8 µM | GI50 [24]: 2.05 µM | TGI [24]: 16.3 µM | GI50 [25]: 3.09 µM | TGI [25]: > 30.2 µM | GI50 [26]: 3.25 µM | TGI [26]: > 24.6 µM | GI50 [27]: 1.93 µM | TGI [27]: 51 µM | GI50 [28]: 1.37 µM | TGI [28]: 6.4 µM | GI50 [29]: 0.633 µM | TGI [29]: 4.45 µM | GI50 [30]: 2.49 µM | TGI [30]: > 28.3 µM | GI50 [31]: 1.81 µM | TGI [31]: > 34.1 µM | GI50 [32]: 2.18 µM | TGI [32]: > 33.2 µM | GI50 [33]: 1.56 µM | TGI [33]: > 83.6 µM | GI50 [34]: 2.25 µM | TGI [34]: 15 µM | GI50 [35]: 2.24 µM | TGI [35]: > 31.1 µM | GI50 [36]: 4.75 µM | TGI [36]: > 100 µM | GI50 [37]: 1.63 µM | TGI [37]: > 30.5 µM | GI50 [38]: 2.61 µM | TGI [38]: > 100 µM | GI50 [39]: 2.69 µM | TGI [39]: > 38.5 µM | GI50 [40]: 4.64 µM | TGI [40]: > 100 µM | GI50 [41]: 4.03 µM | TGI [41]: > 100 µM | GI50 [42]: 1.38 µM | TGI [42]: 10.9 µM | GI50 [43]: 2.17 µM | TGI [43]: > 31.6 µM | TGI [44]: 5.75 µM | GI50 [45]: 0.494 µM | TGI [45]: 3.91 µM | GI50 [46]: 0.776 µM | TGI [46]: 19.7 µM | GI50 [47]: 15.6 µM | TGI [47]: > 100 µM | GI50 [48]: 3.18 µM | TGI [48]: 21.9 µM | GI50 [49]: 3.43 µM | TGI [49]: > 47.6 µM | GI50 [50]: 3.3 µM | TGI [50]: > 36.1 µM | GI50 [51]: 5.55 µM | TGI [51]: > 70.8 µM | GI50 [52]: 1.65 µM | TGI [52]: 29.4 µM | GI50 [53]: 3.32 µM | TGI [53]: > 100 µM | GI50 [54]: 1.71 µM | TGI [54]: > 55.9 µM | GI50 [55]: 3.05 µM | TGI [55]: > 26.5 µM | GI50 [56]: 1.86 µM | TGI [56]: > 32.7 µM | GI50 [57]: 3.45 µM | TGI [57]: > 100 µM
